From publication PMC10520196 (Clinical Pharmacokinetics, 2023)

Experiments:
[1] = healthy adult volunteers, same dose; cited from earlier work
[2] = Observed C24 in P1093; type: in vivo; conditions: human, plasma, oral, Geometric mean C24, P1093, ≥ 6 to < 10 kg
[3] = Final pediatric population PK model; type: in vivo, human
[4] = maturation half-time, fixed; based on paracetamol; ref Anderson et al.; cited from earlier work
[5] = final PopPK model, reference 70-kg subject

## C[C@@H]1CCO[C@H]2Cn3cc(C(=O)NCc4ccc(F)cc4F)c(=O)c(O)c3C(=O)N12 [dolutegravir, Dolutegravir]
[1]
  Relative bioavailability of DT vs granules: comparable
[2]; 10 mg, < 6 months of age, DT 10 mg QD
  concentration at 24 h: 1820 ng/mL
[2]; 10 mg, ≥ 6 months of age, DT 10 mg QD
  concentration at 24 h: 735 ng/mL
[2]; 15 mg, ≥ 6 months of age, DT 15 mg QD
  concentration at 24 h: 908 ng/mL
[3]; calculated as 0.854 × 2.04
  KA (DT and granules): KA (DT and granules) = 1.74 (95% CI 1.20–2.28), calculated as 0.854 × 2.04 (95% CI 0.854 × 1.41–0.854 × 2.67)
[3]; effect of weight on V/F (exponent)
  V/F~WT: 0.556
[3]; final PopPK model, factor on KA of FCT
  KA~DT and granules: 2.04
[3]; final PopPK model, film-coated tablet
  KA, FCT: 0.854 h^–1
[3]; [5]
  CL/F: 1.03 L/h
  V/F: 13.6 L
[3]; inter-individual variability of CL/F, variance
  ω^2CL point estimate: 0.0863
[3]; inter-individual variability of KA, variance
  ω^2KA point estimate: 0.762
[3]; inter-individual variability of V/F, variance
  ω^2V point estimate: 0.0698
[3]; inter-occasion variability of KA, variance
  ω^2IOV,KA point estimate: 0.610
[3]; relative bioavailability
  F, fasted DT/granules: 1.53
  F, without regard to food, FCT: 1.10
[3]; relative bioavailability, reference, fixed
  F, fasted FCT: 1.00
[4]
  TM50: 52.2 FIX week
